Measured values taken from BindingDB's records for PubMed 8930187 (Leiden University, 1996).
pKi: −log10 of the molar value.

molecular target: Gamma-aminobutyric acid receptor subunit alpha-1 (Rattus norvegicus, UniProt P62813)
Sequence (P62813 whole entry): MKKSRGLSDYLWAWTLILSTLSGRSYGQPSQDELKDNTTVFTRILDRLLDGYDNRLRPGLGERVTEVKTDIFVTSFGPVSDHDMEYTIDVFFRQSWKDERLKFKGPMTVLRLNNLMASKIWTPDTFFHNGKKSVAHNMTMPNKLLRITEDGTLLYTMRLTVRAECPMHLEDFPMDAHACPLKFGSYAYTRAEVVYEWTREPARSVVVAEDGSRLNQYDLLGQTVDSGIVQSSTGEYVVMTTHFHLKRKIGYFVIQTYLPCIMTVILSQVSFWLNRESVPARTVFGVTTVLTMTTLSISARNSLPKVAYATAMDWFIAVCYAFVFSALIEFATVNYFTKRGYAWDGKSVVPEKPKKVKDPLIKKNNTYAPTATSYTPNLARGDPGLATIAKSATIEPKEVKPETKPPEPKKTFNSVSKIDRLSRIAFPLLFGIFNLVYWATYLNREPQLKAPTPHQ

| SMILES | pKi |
| --- | --- |
| CN1C(=O)CN=C(c2ccccc2F)c2cc([N+](=O)[O-])ccc21 [Flunitrazepam] | 7.54 |
| O=C1CN=C(c2ccccc2Cl)c2cc([N+](=O)[O-])ccc2N1 [5-(2-chlorophenyl)-7-nitro-1,3-dihydro-2H-1,4-benzodiazepin-2-one] | 7.57 |
| O=C1Nc2ccc(Cl)cc2C(c2ccccc2)=NC1O (centres undefined) [CAS_604-75-1] | 6.46 |
| Cc1ncc2n1-c1ccc(Cl)cc1C(c1ccccc1F)=NC2 [12-chloro-9-(2-fluorophenyl)-3-methyl-2,4,8-triazatricyclo[8.4.0.0^{2,6}]tetradeca-1(10),3,5,8,11,13-hexaene] | 7.59 |
